Laboratory results from PMC6083693, “Ligand-based pharmacophore model for the discovery of novel CXCR2 antagonists as anti-cancer metastatic agents” (Royal Society Open Science, 2018).
Read-outs that look alike come from different tables or passages of the source.

Legend:
Type in all cases: cell-based
CXCR2 = molecular target: T1, CXCR2 (Homo sapiens, UniProt P25025); experiment: CXCR2 antagonistic activity assay (IL-8-induced intracellular calcium change, Fluo-4 AM, HEK293 cells stably expressing Gα16 and CXCR2); conditions: for CXCR2 antagonistic activity (in words): HEK293 cells expressing Gα16 and CXCR2
T1 construct: expressed in transfected cells; host or cells: HEK293 cells stably expressing Gα16 and CXCR2
T1 sequence (P25025 1-360): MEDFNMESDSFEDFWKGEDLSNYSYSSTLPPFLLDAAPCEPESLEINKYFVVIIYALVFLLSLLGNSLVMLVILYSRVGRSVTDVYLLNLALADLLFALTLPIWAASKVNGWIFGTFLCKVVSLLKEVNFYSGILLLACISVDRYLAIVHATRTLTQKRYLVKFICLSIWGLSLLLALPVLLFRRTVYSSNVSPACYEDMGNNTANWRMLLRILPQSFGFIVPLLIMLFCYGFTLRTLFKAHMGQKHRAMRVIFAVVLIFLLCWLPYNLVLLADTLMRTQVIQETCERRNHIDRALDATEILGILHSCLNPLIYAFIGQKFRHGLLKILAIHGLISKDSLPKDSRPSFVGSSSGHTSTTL
Protocol: Human embryonic kidney 293 (HEK293) cells stably expressing Gα16 and CXCR2 were seeded onto 96-well plates and incubated for 24 h. Cells were loaded with 2 µmol l^−1 Fluo-4 AM in Hank's balanced salt solution (HBSS, containing KCl 5.4 mmol l^−1, Na2HPO4 0.3 mmol l^−1, KH2PO4 0.4 mmol l^−1, NaHCO3 4.2 mmol l^−1, CaCl2 1.3 mmol l^−1, MgCl2 0.5 mmol l^−1, Mg2SO4 0.6 mmol l^−1, NaCl 137 mmol l^−1, BSA 5 g l^−1, glucose 5.6 mmol l^−1 and sulfinpyrazone 250 µmol l^−1, pH 7.4) at 37°C for 45 min. The excess dye was removed and 50 µl of HBSS containing test compounds was added. After incubation at room temperature for 10 min, 25 µl of HBSS containing IL-8 was dispensed into the well using a FlexStation II microplate reader (Molecular Devices, Sunnyvale, CA, USA), and intracellular calcium change was recorded with an excitation wavelength of 485 nm and an emission wavelength of 525 nm. The half maximal inhibitory concentrations (IC50) of compounds were determined with the […] PRISM software by constructing their dose–response curves.

NCI-H1299 cells [1] = experiment: Anti-proliferation assay (MTT); conditions: NCI-H1299, 0.1, 1, 10 and 100 µg ml^−1, 72 h
Protocol: NCI-H1299 cells (provided by Tumor Pharmacology and Endocrine Laboratory, College of Pharmaceutical Sciences, Zhe Jiang University) were seeded in 96-well plates at a density of 4000 cells well^−1. After 24 h of adherence, cells were incubated with medium alone or medium containing test compounds for 72 h. Four different concentrations (100, 10, 1 and 0.1 µg ml^−1) of both antagonists were used. Cell proliferation was determined by the thiazolyl blue tetrazolium bromide (MTT) assay. Growth inhibition was calculated as % = [1 − (A/B)] × 100, where A and B were the absorbance of treated and untreated cells, respectively.
The highly metastatic NCI-H1299 lung cancer cell line was selected for the following in vitro biological evaluation.

NCI-H1299 cells [2] = experiment: Wound healing assay (cell migration); conditions: Homo sapiens; NCI-H1299, 50 µg ml^−1, 48 h treatment; read-out: cell migration inhibitory rate
Protocol: NCI-H1299 cells (5 × 10^5 cell well^−1) were seeded in a six-well tissue culture plate and grown to 90% confluence. After the medium was removed, a gap with constant width was created in the centre of the cell well by scratching the monolayer with a sterile yellow micropipette tip. […] The wound closure was monitored and photographed at 0, 12, 24, 36 and 48 h with the IMAGEPRO software. The cell migration inhibitory rate was calculated as % = [1 − (0 h wound area − 12, 24, 36 or 48 h wound area)/0 h wound area] × 100.
The wound area was calculated with the IMAGEPRO software.

[3] = HEK293 cells expressing Gα16 and CXCR2, IL-8 stimulated calcium change, read-out: CXCR2 IC50

SMILES	IC50 (CXCR2; [3])	also measured
N#Cc1ccc(Nc2nnc(-c3ccccc3Br)[nH]2)c(O)c1 [Compound 1c, 4-((5-(2-bromophenyl)-4H-1,2,4-triazol-3-yl)amino)-3-hydroxybenzonitrile]	25.4 µM	–
CN(C)C(=O)c1cccc(Nc2nccc(Nc3ccccc3)n2)c1O [Compound 2, 2-hydroxy-N,N-dimethyl-3-((4-(phenylamino)pyrimidin-2-yl)amino)benzamide]	> 100 µM	CXCR2 antagonistic activity (in words) (CXCR2): loss of CXCR2 antagonistic activity
CC(C)S(=O)(=O)c1c(Cl)ccc(Nc2nnc(-c3ccccc3)[nH]2)c1O [Compound 1e, 3-chloro-2-(isopropylsulfonyl)-6-((5-phenyl-4H-1,2,4-triazol-3-yl)amino)phenol]	–	IC50 (CXCR2): 14.8 µM; cytotoxicity (growth inhibition, MTT) (NCI-H1299 cells [1]): no cytotoxicity; inhibition at 50 µg/mL (NCI-H1299 cells [2]): 72%
CN(C)C(=O)c1cccc(Nc2nnc(-c3ccccc3)[nH]2)c1O [Compound 1a, 2-hydroxy-N,N-dimethyl-3-((5-phenyl-4H-1,2,4-triazol-3-yl)amino)benzamide]	76 µM	–
N#Cc1ccc(Nc2nnc(-c3ccccc3)[nH]2)c(O)c1 [Compound 1b, 3-hydroxy-4-((5-phenyl-4H-1,2,4-triazol-3-yl)amino)benzonitrile]	18.5 µM	–
N#Cc1ccc(Nc2nnc(-c3ccc(C(F)(F)F)cc3)[nH]2)c(O)c1 [Compound 1d, 3-hydroxy-4-((5-(4-(trifluoromethyl)phenyl)-4H-1,2,4-triazol-3-yl)amino)benzonitrile]	> 100 µM	–
CN(C)C(=O)c1cccc(Nc2nn(Cc3ccccc3)c(=O)[nH]2)c1O [Compound 3, 3-((1-benzyl-5-oxo-4,5-dihydro-1H-1,2,4-triazol-3-yl)amino)-2-hydroxy-N,N-dimethylbenzamide]	> 100 µM	CXCR2 antagonistic activity (in words) (CXCR2): loss of CXCR2 antagonistic activity
